Test: Phase 1 drug-drug interaction study: safety and tolerability (adverse events)
[1] = GLPG1205 100 mg once a day + CYP450 substrates, n = 14
[2] = GLPG1205 100 mg once a day alone, n = 14

Text: The safety assessment was based on adverse events (AEs), vital signs, 12‐lead electrocardiogram (ECG), physical examinations, and safety laboratory tests. AEs were monitored for the duration of the study. All safety assessments were undertaken at the screening visit, on days 13 and 14, and at the follow‐up visit. In addition, safety assessments were undertaken on day 1 (vital signs, 12‐lead ECG, and clinical laboratory tests) and day 7 (physical examination, vital signs, and clinical laboratory tests).
The safety population comprised all randomized subjects who received at least 1 dose of study drug.

Question: What does the source list for `O=c1nc(OC[C@@H]2COCCO2)cc2n1CCc1cc(C#CC3CC3)ccc1-2` [GLPG1205, 9‐cyclopropylethynyl‐2‐[(S)‐1‐(1,4)dioxan‐2‐ylmethoxy]‐6,7‐dihydropyrimido[6,1‐a]isoquinolin‐4‐one]?
Answer: Any TEAE [1]: 3 (21.4) n (%); Gastrointestinal disorders [1]: 0 n (%); General disorders and general administration‐site conditions [1]: 0 n (%); Headache [1]: 1 (7.1) n (%); Influenza‐like illness [1]: 0 n (%); Musculoskeletal and connective tissue disorders [1]: 1 (7.1) n (%); Myalgia [1]: 1 (7.1) n (%); Nausea [1]: 0 n (%); Nervous system disorders [1]: 1 (7.1) n (%); Oropharyngeal pain [1]: 1 (7.1) n (%); Pain [1]: 0 n (%); Respiratory, thoracic, and mediastinal disorders [1]: 1 (7.1) n (%); Any TEAE [2]: 9 (64.3) n (%); Back pain [2]: 0 n (%); Disturbance in attention [2]: 2 (14.3) n (%); Eye disorders [2]: 1 (7.1) n (%); Fatigue [2]: 1 (7.1) n (%); Flatulence [2]: 1 (7.1) n (%); Flushing [2]: 1 (7.1) n (%); Gastroenteritis [2]: 1 (7.1) n (%); Gastrointestinal disorders [2]: 1 (7.1) n (%); General disorders and general administration‐site conditions [2]: 1 (7.1) n (%); Headache [2]: 5 (35.7) n (%); Hyperhidrosis [2]: 0 n (%); Infections and infestations [2]: 1 (7.1) n (%); Lacrimation increased [2]: 1 (7.1) n (%); Musculoskeletal and connective tissue disorders [2]: 1 (7.1) n (%); Myalgia [2]: 1 (7.1) n (%); Nasopharyngitis [2]: 0 n (%); Nervous system disorders [2]: 8 (57.1) n (%); Oropharyngeal pain [2]: 1 (7.1) n (%); Paresthesia [2]: 1 (7.1) n (%); Presyncope [2]: 1 (7.1) n (%); Rash [2]: 0 n (%); Respiratory, thoracic, and mediastinal disorders [2]: 1 (7.1) n (%); Skin and subcutaneous tissue disorders [2]: 0 n (%); Vascular disorders [2]: 1 (7.1) n (%); Vision blurred [2]: 0 n (%); moderate presyncope, subjects (GLPG1205 alone): 1 n; moderate oropharyngeal pain, subjects (GLPG1205 plus CYP450 substrates): 1 n; deaths or serious AEs (during the study): no deaths or serious AEs; laboratory safety tests, ECG, vital signs, physical examination (during the study): No clinically significant trends or abnormalities
